Measured values as given in US9586963B2 (GENFIT, priority 2011, dated 2017).
Where a name gives a salt, the structure may show the parent alone.

Target: T1, Rev-Erb alpha (Homo sapiens, UniProt P20393)
T1 sequence (P20393 284-614 limits assumed): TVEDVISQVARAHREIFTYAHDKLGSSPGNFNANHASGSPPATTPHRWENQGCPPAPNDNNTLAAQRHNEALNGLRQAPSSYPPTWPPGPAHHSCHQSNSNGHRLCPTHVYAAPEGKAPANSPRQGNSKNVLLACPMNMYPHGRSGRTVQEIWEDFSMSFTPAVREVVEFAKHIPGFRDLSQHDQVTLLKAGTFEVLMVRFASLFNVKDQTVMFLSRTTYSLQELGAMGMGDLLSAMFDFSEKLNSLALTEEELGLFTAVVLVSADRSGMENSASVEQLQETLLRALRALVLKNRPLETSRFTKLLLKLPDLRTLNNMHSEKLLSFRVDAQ
Test: M2H (mammalian two-hybrid) cellular activation assay of Rev-Erb alpha
Format: cell-based
Details: M2H assay, HEK293 cells; for EC50: Gal4-Rev-Erb alpha / VP16-NCoR, luciferase reporter; for Emax: relative to DMSO, at the tested dose, read-out: TOP activation
Experimental: In this system, Rev-Erb alpha or Rev-Erb beta is expressed as a fusion to the Gal4 DNA-binding domain and the cofactor NCoR is expressed as a fusion to the activation domain of the Herpes Simplex Virus tegument protein VP16. These fusion proteins were included in plasmids at a concentration of 1 μg/μL. The pBS-SK+ vector was added to the preparation to adjust the DNA quantity to a fixed value for each condition.
The transfection mix (Jet-PEI protocol, Polyplus transfection) comprised: • 3 mL of Jet PEI Mix (180 μL Jet-Pei and NaCl at 150 mM) and • 3 mL of the DNA Mix or of the DNA Mix control (wherein the Gal4-Rev-Erb alpha plasmid was replaced by a pGal4phi plasmid).
DNA Mix comprised 1.2 mL of DNA and 1.8 mL of NaCl at 150 mM with, in a T225 flask: • 90 ng of Gal4-Rev-Erb alpha, or 90 ng of Gal4-Rev-Erb beta, • 4500 ng of VP16-NCoR, • 27000 ng of Gal4-RE and • 13410 ng of pBS-SK+. Cells
HEK293 cells were cultured in DMEM (Invitrogen 41965) comprising 10% FBS, P/S, 1% glutamine, 1% pyruvate (Invitrogen 11360) and 1% amino acids (Invitrogen 11140). Cells were then batch co-transfected with plasmid vectors (described in the table above) using as Jet-PEI as reagent (Polyplus) following the protocol specified below.
The 6 mL-transfection mix was transferred in a T225 flask. HEK293 cells were then added at a concentration of 12 Millions of cells for 54 mL of medium (DMEM comprising 10% FBS and 1% P/S). Cells incubated over-night at 37° C. and under 5% CO2.
This cell-based assay is performed using 384-well Greiner white plates (Reference 781080). After the incubation, cells were rinsed with PBS, trypsinized, centrifuged and resuspended in free-serum DMEM without phenol red (Invitrogen 31053). Cells were counted and adjusted to 0.5 Million per mL and plated at a concentration of 10,000 cells in 20 μL per well. They were incubated a minimum of 4 hours at 37° C. under 5% CO2. Cells were treated with 20 μL of the compound to analyze (concentration of 2× diluted in DMEM without FBS containing a maximum of 1% DMSO) and incubated over-night (18 hours, 37° C. and 5% CO2). Each compound has been tested at 6 different concentrations to depict a dose-effect allowing the measure of biochemical parameters such as EC50 and TOP activation (%).
Cells were incubated 30 minutes with 40 μL/well of Steady Glow (Promega) and luminescence was read with TECAN Genios Pro (100 ms/w). Four experiments were carried out for each compound.
Each compound has been tested at 6 different concentrations to depict a dose-effect allowing the measure of biochemical parameters such as EC50 and TOP activation (%).
The mammalian two-hybrid system (M2H) assay consists herein in studying the ability of compounds according to the invention to activate Rev-Erbalpha in cells and thus modulate the interaction with its corepressor. The interaction of the two proteins is assessed with the help of the Luciferase reporter gene. HEK293 cells were transfected with two gene constructions: Gal4-RE VP16-NCoR and Gal4-Rev-Erbalpha or with Gal4-RE, sVP16-NCoR and Gal4-Rev-Erb beta.
The ability of compounds according to the invention of activating Rev-Erbalpha alpha or Rev-Erb beta was assessed in the described cell-based assay. EC50 and TOP activation (%) were measured.

Nc1ccc(Oc2ccc3nnc(Cl)n3n2)c(-c2ccccc2)c1 [Cpd.4-36, 6-(5-amino-biphenyl-2-yloxy)-3-chloro-[1,2,4]triazolo[4,3-b]pyridazine]
EC50: 1000 to 6000 nM

Cc1ncncc1-c1ccc(C(F)(F)F)cc1Oc1cc(C)c2nnc(Cl)n2n1 [Cpd.5-45, 3-chloro-8-methyl-6-(2-(4-methylpyrimidin-5-yl)-5-(trifluoromethyl)phenoxy)-[1,2,4]triazolo[4,3-b]pyridazine]
EC50: 1000 to 6000 nM

Fc1cccc(-c2cccc(Oc3ccc4nnc(Cl)n4n3)c2)c1 [Cpd.3-6, 6-(3′-fluoro-biphenyl-3-yloxy)-3-chloro-[1,2,4]triazolo[4,3-b]pyridazine]
EC50: 100 to 1000 nM

Clc1nnc2ccc(Oc3ccccc3-c3cccnc3)nn12 [Cpd.4-98, 3-chloro-6-(2-(pyridin-3-yl)phenoxy)-[1,2,4]triazolo[4,3-b]pyridazine hydrochloride]
EC50: > 6000 nM
Emax: > 130%

Clc1nnc2ccc(Oc3ccccc3-c3cscn3)nn12 [Cpd.4-103, 3-chloro-6-(2-(thiazol-4-yl)phenoxy)-[1,2,4]triazolo[4,3-b]pyridazine]
EC50: > 6000 nM
Emax: > 130%

CNc1ccc(-c2ccccc2)c(Oc2ccc3nnc(Cl)n3n2)c1 [Cpd.4-52, 3-chloro-6-(4-N-methylamino-biphenyl-2-yloxy)-[1,2,4]triazolo[4,3-b]pyridazine]
EC50: 100 to 1000 nM

Fc1ccc(Oc2ccc3nnc(Cl)n3n2)c(-c2ccccc2F)c1 [Cpd.4-121, 3-chloro-6-(2′,5-difluorobiphenyl-2-yloxy)-[1,2,4]triazolo[4,3-b]pyridazine]
EC50: 100 to 1000 nM

FC(F)(F)c1cccc(Oc2ccc3nnc(Cl)n3n2)c1-c1ccccc1
EC50: < 100 nM

CCCCN(CCCC)c1ccc(Oc2ccc3nnc(Cl)n3n2)c(-c2ccccc2)c1 [Cpd.4-57, 3-chloro-6-(5-dibutylamino-biphenyl-2-yloxy)-[1,2,4]triazolo[4,3-b]pyridazine]
EC50: 100 to 1000 nM

COc1ccccc1-c1ccccc1Oc1ccc2nnc(Cl)n2n1 [Cpd.4-111, 3-chloro-6-(2′-methoxybiphenyl-2-yloxy)-[1,2,4]triazolo[4,3-b]pyridazine]
EC50: 100 to 1000 nM

Nc1ccc(-c2ccccc2)c(Oc2ccc3nnc(Cl)n3n2)c1 [Cpd.4-48, 3-chloro-6-(4-amino-biphenyl-2-yloxy)-[1,2,4]triazolo[4,3-b]pyridazine]
EC50: 1000 to 6000 nM

FC(F)(F)c1cccc(Oc2ccc3nnc(Cl)n3n2)c1-c1cccnc1 [Cpd.4-129, 3-chloro-6-(2-(pyridin-3-yl)-3-(trifluoromethyl)phenoxy)-[1,2,4]triazolo[4,3-b]pyridazine]
EC50: 1000 to 6000 nM

Cc1ccc(-c2cc(F)ccc2Oc2ccc3nnc(C(F)(F)F)n3n2)cc1 [Cpd.4-142, 3-(trifluoromethyl)-6-(5-fluoro-4′-methylbiphenyl-2-yloxy)-[1,2,4]triazolo[4,3-b]pyridazine]
EC50: 1000 to 6000 nM

CCc1c(Oc2cc(C(F)(F)F)ccc2-c2ccccc2)nn2c(Cl)nnc2c1CC [Cpd.5-12, 3-chloro-7,8-diethyl-6-(4-trifluoromethyl-biphenyl-2-yloxy)-[1,2,4]triazolo[4,3-b]pyridazine]
EC50: 100 to 1000 nM

Clc1nnc2ccc(Oc3ccccc3-c3ccc4scnc4c3)nn12 [Cpd.4-110, 6-(2-(benzo[d]thiazol-5-yl)phenoxy)-3-chloro-[1,2,4]triazolo[4,3-b]pyridazine]
EC50: 100 to 1000 nM

Cc1nc(-c2ccc(-c3ccccc3)c(Oc3ccc4nnc(Cl)n4n3)c2)no1 [Cpd.4-197, 3-chloro-6-(5-(5-methyl-1,2,4-oxadiazol-3-yl)-2-(phenyl)phenoxy)-[1,2,4]triazolo[4,3-b]pyridazine]
EC50: 100 to 1000 nM

COc1ncc(-c2ccc(C(F)(F)F)cc2Oc2nn3c(Cl)nnc3cc2C)c(OC)n1 [Cpd.5-51, 3-chloro-6-(2-(2,4-dimethoxypyrimidin-5-yl)-5-(trifluoromethyl)phenoxy)-7-methyl-[1,2,4]triazolo[4,3-b]pyridazine]
EC50: 1000 to 6000 nM

Cc1nc(-c2ccc(Oc3nn4c(Cl)nnc4cc3C)c(-c3ccccc3)c2)no1 [Cpd.5-65, 3-chloro-7-methyl-6-(4-(5-methyl-1,2,4-oxadiazol-3-yl)-2-(phenyl)phenoxy)-[1,2,4]triazolo[4,3-b]pyridazine]
EC50: 1000 to 6000 nM

Oc1cncc(-c2ccc(C(F)(F)F)cc2Oc2ccc3nnc(Cl)n3n2)c1 [Cpd.4-96, 5-(2-(3-chloro-[1,2,4]triazolo[4,3-b]pyridazin-6-yloxy)-4-(trifluoromethyl)phenyl)pyridin-3-ol]
EC50: > 6000 nM
Emax: > 130%

CN(Cc1ccc(Oc2ccc3nnc(Cl)n3n2)c(-c2ccccc2)c1)C1CCCCC1
EC50: 1000 to 6000 nM

Cc1cc(Oc2cc(C(F)(F)F)ccc2-c2cncnc2)nn2c(Cl)nnc12 [Cpd.5-30, 3-chloro-8-methyl-6-(2-(pyrimidin-5-yl)-5-(trifluoromethyl)phenoxy)-[1,2,4]triazolo[4,3-b]pyridazine]
EC50: 1000 to 6000 nM

COc1ncccc1-c1ccc(C(F)(F)F)cc1Oc1nn2c(Cl)nnc2c(C)c1C [Cpd.5-25, 3-chloro-7,8-dimethyl-6-((2-(2-methoxypyridin-3-yl))-5-(trifluoromethyl)phenoxy)-[1,2,4]triazolo[4,3-b]pyridazine]
EC50: 1000 to 6000 nM

COC(=O)c1ccc(-c2ccccc2)c(Oc2ccc3nnc(Cl)n3n2)c1 [Cpd.4-43, 3-chloro-6-(4-methyloxycarbonyl-biphenyl-2-yloxy)-[1,2,4]triazolo[4,3-b]pyridazine]
EC50: < 100 nM

CCc1ncncc1-c1ccc(C(F)(F)F)cc1Oc1cc(C)c2nnc(Cl)n2n1 [Cpd.5-53, 3-chloro-6-(2-(4-ethylpyrimidin-5-yl)-5-(trifluoromethyl)phenoxy)-8-methyl-[1,2,4]triazolo[4,3-b]pyridazine]
EC50: 1000 to 6000 nM

Clc1cccc(-c2ccccc2Oc2ccc3nnc(Cl)n3n2)c1 [Cpd.4-29, 6-(3′-chloro-biphenyl-2-yloxy)-3-chloro-[1,2,4]triazolo[4,3-b]pyridazine]
EC50: 100 to 1000 nM

Cc1ccc(-c2cc(F)ccc2Oc2ccc3nnc(Cl)n3n2)cc1 [Cpd.4-143, 3-chloro-6-(5-fluoro-4′-methylbiphenyl-2-yloxy)-[1,2,4]triazolo[4,3-b]pyridazine]
EC50: 100 to 1000 nM

Clc1nnc2ccc(Oc3ccc(CN4CCOCC4)cc3-c3ccccc3)nn12 [Cpd.4-62, 3-chloro-6-(5-morpholinomethyl-biphenyl-2-yloxy)-[1,2,4]triazolo[4,3-b]pyridazine]
EC50: 1000 to 6000 nM

Cc1nc(-c2ccc(-c3cccnc3)c(Oc3ccc4nnc(Cl)n4n3)c2)no1 [Cpd.4-199, 3-chloro-6-(5-(5-methyl-1,2,4-oxadiazol-3-yl)-2-(pyridin-3-yl)phenoxy)-[1,2,4]triazolo[4,3-b]pyridazine]
EC50: > 6000 nM
Emax: > 130%

CN1CCN(Cc2ccc(-c3ccccc3)c(Oc3ccc4nnc(Cl)n4n3)c2)CC1 [Cpd.4-177, 3-chloro-6-(4-(1-methylpiperazin-4-ylmethyl)biphenyl-2-yloxy)-[1,2,4]triazolo[4,3-b]pyridazine]
EC50: > 6000 nM
Emax: > 130%

Cc1cccc(-c2cc(F)ccc2Oc2ccc3nnc(C(F)(F)F)n3n2)c1 [Cpd.4-136, 3-(trifluoromethyl)-6-(5-fluoro-3′-methylbiphenyl-2-yloxy)-[1,2,4]triazolo[4,3-b]pyridazine]
EC50: 100 to 1000 nM
